Assay results as given in US12221406B2, “Compounds as NLRP3 inflammasome inhibitors and compositions and uses thereof” (VIRGINIA COMMONWEALTH UNIVERSITY, priority 2019, dated 2025).

Columns and labels:
[1] = biological target: T1, AIM2 inflammasome (Mus musculus, UniProt Q91VJ1); assay: AIM2 inflammasome assay in J774A.1 cells (LPS/Poly(dA:dT), IL-1β ELISA); type: cell-based, murine; conditions: compound 10 μM
T1 construct: endogenous in cells; host or cells: J774A.1 murine macrophage cell line (LPS + Poly(dA:dT))
T1 sequence (Q91VJ1 1-354): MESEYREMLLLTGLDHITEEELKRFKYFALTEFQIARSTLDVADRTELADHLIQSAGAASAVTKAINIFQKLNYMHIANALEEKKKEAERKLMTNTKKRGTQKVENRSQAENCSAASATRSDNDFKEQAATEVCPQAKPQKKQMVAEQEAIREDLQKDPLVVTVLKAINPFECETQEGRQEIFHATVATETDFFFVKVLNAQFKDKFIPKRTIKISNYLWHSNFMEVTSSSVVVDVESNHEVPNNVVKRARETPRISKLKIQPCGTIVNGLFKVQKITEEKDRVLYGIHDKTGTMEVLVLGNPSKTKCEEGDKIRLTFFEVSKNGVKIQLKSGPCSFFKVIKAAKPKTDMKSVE
Method: (§1) J774A.1 cells were plated into a 96-well plate. […] Cells were treated with LPS (1 μg/mL) and test compounds for 1 h. Flagellin or poly-deoxyadenylic-deoxythymidylic acid sodium salt (Poly(dA:dT)) was used to induce the formation of the NLRC4 and the AIM2 inflammasomes.

[2] = tested on: hCMEC/D3 cells; assay: Cytotoxicity on hCMEC/D3 cells (Live/Dead kit); type: cell-based, human; conditions: 20 μM, 2 h
[3] = biological target: T2, NLRC4 inflammasome (Mus musculus, UniProt Q3UP24); assay: NLRC4 inflammasome assay in J774A.1 cells (LPS/flagellin, IL-1β ELISA); type: cell-based, murine; conditions: compound 10 μM
T2 construct: endogenous in cells; host or cells: J774A.1 murine macrophage cell line (LPS + transfected flagellin)
Method: as §1

[4] = PK study in rats, IV and PO, plasma by LC-MS/MS; type: in vivo, Sprague-Dawley rats
Method: (§2) […]. […] […]. Plasma samples ([…]) were collected at 0.08, 0.17, 0.25, 0.5, 0.75, 1.0, 2.0, 4.0, 8.0, 12.0, and 24.0 h time points through orbital vein and were stored in −80° C. freezer for later analysis.
(§3) Samples were mixed by vortexing for 30 seconds. […] […]. […] […].

[5] = In vivo BBB penetration in mice, plasma and brain by LC-MS/MS; set-up: species or system C57BL/6 mice; conditions: PO 20 mg/kg
Method: as §2, §3

[6] = tested on: EAE; assay: EAE development in MOG-immunized mice; type: in vivo, C57BL/6 mice; conditions: from disease onset, to day 35
Description: C57BL/6 mice (n=10) were immunized subcutaneously in the dorsal flanks with MOG35-55 peptide emulsified in CFA on day 0. […] To assess the therapeutic effect in clinically relevant setting, treatment was started on disease onset (reduced tail tone, clinical score=1). Control mice received DMSO.

[7] = biological target: NLRP3 inflammasome (Mus musculus, UniProt Q8R4B8); assay: IL-1β release from mouse peritoneal macrophages upon LPS/ATP challenge (ELISA); type: cell-based; set-up: endogenous in cells; host or cells: thioglycolate-elicited peritoneal macrophages from C57BL/6 mice
Chain of NLRP3 inflammasome (Q8R4B8 whole entry): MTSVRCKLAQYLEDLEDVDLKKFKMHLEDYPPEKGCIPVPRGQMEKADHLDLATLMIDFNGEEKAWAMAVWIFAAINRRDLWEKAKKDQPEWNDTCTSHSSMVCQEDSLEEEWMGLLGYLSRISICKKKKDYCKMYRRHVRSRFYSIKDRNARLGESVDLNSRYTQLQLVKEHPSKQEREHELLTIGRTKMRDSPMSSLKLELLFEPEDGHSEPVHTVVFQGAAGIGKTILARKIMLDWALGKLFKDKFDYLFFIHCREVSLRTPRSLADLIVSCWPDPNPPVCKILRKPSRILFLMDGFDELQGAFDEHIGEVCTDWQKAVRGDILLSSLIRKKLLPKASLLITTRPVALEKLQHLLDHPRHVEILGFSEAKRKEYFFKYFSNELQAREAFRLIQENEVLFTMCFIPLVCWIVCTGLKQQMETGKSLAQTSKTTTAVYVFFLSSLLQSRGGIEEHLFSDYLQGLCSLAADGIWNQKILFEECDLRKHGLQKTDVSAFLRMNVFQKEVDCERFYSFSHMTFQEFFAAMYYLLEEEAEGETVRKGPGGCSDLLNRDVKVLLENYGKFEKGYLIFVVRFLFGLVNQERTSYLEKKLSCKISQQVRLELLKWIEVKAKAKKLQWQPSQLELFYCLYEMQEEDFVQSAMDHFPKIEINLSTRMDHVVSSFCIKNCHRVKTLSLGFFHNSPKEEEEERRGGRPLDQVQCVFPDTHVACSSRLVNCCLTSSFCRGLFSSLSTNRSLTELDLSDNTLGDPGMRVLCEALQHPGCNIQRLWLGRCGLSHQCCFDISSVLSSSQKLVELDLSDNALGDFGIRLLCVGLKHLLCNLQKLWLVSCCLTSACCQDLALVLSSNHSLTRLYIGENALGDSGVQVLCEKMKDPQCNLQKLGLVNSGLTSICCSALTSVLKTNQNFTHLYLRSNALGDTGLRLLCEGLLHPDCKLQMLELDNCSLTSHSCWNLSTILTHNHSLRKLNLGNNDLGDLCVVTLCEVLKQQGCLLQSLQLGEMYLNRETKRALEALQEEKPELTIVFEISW
Method: Next, test compounds were added for 30 min. […] Primary peritoneal macrophages were similarly treated as described with J774A.1 cell line followed by ELISA analysis for IL-β production.
C57BL/6 mice were injected with 1 mL of 3% thioglycolate into the peritoneal cavity. Peritoneal cells were collected 3 days after injection by flushing the peritoneal cavity with cold PBS. The peritoneal cells were plated in complete RPMI1640 media containing 10% FBS, 100 U/mL penicillin, 100 μg/mL streptomycin. Floating cells were removed after 2 h and adherent peritoneal macrophages were used for experiments as described above.

Row | SMILES | effect on IL-1β production by AIM2 inflammasome [1] | cytotoxicity on hCMEC/D3 cells [2] | effect on IL-1β production by NLRC4 inflammasome [3] | oral bioavailability (Foral) ([4]; 20 mg/kg PO vs IV) [%] | steady-state volume of distribution (Vdss) ([4]; IV 20 mg/kg) [L/kg] | terminal plasma half-life (t½) ([4]; IV 20 mg/kg) [h] | total clearance (CLtot) ([4]; IV 20 mg/kg) [mL/min/kg] | cmax ([4]; PO 20 mg/kg) [ng/mL] | tmax ([4]; PO 20 mg/kg) [h] | plasma concentration ([5]; 0.5 hours) [ng/mL] | brain concentration after approximate conversion ([5]; 4 h) | EAE induction (clinical score) ([6]; 2 mg/kg i.p.) | EAE induction (clinical score) ([6]; 10 mg/kg i.p.) | inhibitory activity in mouse peritoneal macrophages [7]
1 | C#CCNS(=O)(=O)c1ccc(CCN(Cc2cc(Cl)ccc2OCCC)C(=O)Cc2ccsc2)cc1 [SZ-N3I-45, N-(5-chloro-2-propoxybenzyl)-N-(4-(N-(prop-2-yn-1-yl)sulfamoyl)phenethyl)-2-(thio-phen-3-yl)acetamide] | did not significantly interfere | did not show significant toxic effects | did not significantly interfere | 10 | 8.5 | 6.6 | 41 | 73 | 12 | 277.33 ± 182.15 | around 12 nM |  |  | 
2 | C#CCNS(=O)(=O)c1ccc(CCN(Cc2cc(Cl)ccc2OC)C(=O)C=C)cc1 [HL16, N-(5-chloro-2-methoxybenzyl)-N-(4-(N-(prop-2-yn-1-yl)sulfamoyl)phenethyl)acryl-amide] | significantly inhibited |  | significantly inhibited |  |  |  |  |  |  |  |  | substantially blocked induction of EAE | substantially blocked induction of EAE | confirmed
